Measurements published in ChEMBL document CHEMBL5385861, “Development of novel hydrazidoarylaminopyrimidine-based BTK/FLT3 dual inhibitors with potent in vivo anti-hematological malignancies effects” (Eur J Med Chem, 2023).
Calls of active or inactive are those of the source. No cut-off for these calls is given here.

Assays:
[1] = target: Tyrosine-protein kinase receptor TYRO3 (Homo sapiens) (UniProt Q06418); experiment: Inhibition of RSE (unknown origin) at 0.2 uM incubated for 40 mins by radiometric kinase assay relative to control
[2] = target: Tyrosine-protein kinase CSK (Homo sapiens) (UniProt P41240); experiment: Inhibition of CSK (unknown origin) at 0.2 uM incubated for 40 mins by radiometric kinase assay relative to control
JeKo-1 [3] = experiment: Induction of apoptosis in human JeKo-1 cells assessed as late apoptotic cells at 30 nM incubated for 72 hrs by Annexin VFITC/PI staining based flow cytometry analysis (reference value: 1.42%); format: functional
[4] = Acute toxicity in ICR mouse assessed as animal survival at 585.9 mg/kg, ip measured for 2 weeks; format: organism-based; conditions: in vivo
JeKo-1 [5] = experiment: Potency index, ratio of spebrutinib IC50 to test compound IC50 for antiproliferative activity against human JeKo-1 cells; format: functional
[6] = target: Vascular endothelial growth factor receptor 3 (Homo sapiens) (UniProt P35916); experiment: Inhibition of FLT4 (unknown origin) at 0.2 uM incubated for 40 mins by radiometric kinase assay relative to control
Vascular endothelial growth factor receptor 3 (Homo sapiens), sequence (P35916 whole entry): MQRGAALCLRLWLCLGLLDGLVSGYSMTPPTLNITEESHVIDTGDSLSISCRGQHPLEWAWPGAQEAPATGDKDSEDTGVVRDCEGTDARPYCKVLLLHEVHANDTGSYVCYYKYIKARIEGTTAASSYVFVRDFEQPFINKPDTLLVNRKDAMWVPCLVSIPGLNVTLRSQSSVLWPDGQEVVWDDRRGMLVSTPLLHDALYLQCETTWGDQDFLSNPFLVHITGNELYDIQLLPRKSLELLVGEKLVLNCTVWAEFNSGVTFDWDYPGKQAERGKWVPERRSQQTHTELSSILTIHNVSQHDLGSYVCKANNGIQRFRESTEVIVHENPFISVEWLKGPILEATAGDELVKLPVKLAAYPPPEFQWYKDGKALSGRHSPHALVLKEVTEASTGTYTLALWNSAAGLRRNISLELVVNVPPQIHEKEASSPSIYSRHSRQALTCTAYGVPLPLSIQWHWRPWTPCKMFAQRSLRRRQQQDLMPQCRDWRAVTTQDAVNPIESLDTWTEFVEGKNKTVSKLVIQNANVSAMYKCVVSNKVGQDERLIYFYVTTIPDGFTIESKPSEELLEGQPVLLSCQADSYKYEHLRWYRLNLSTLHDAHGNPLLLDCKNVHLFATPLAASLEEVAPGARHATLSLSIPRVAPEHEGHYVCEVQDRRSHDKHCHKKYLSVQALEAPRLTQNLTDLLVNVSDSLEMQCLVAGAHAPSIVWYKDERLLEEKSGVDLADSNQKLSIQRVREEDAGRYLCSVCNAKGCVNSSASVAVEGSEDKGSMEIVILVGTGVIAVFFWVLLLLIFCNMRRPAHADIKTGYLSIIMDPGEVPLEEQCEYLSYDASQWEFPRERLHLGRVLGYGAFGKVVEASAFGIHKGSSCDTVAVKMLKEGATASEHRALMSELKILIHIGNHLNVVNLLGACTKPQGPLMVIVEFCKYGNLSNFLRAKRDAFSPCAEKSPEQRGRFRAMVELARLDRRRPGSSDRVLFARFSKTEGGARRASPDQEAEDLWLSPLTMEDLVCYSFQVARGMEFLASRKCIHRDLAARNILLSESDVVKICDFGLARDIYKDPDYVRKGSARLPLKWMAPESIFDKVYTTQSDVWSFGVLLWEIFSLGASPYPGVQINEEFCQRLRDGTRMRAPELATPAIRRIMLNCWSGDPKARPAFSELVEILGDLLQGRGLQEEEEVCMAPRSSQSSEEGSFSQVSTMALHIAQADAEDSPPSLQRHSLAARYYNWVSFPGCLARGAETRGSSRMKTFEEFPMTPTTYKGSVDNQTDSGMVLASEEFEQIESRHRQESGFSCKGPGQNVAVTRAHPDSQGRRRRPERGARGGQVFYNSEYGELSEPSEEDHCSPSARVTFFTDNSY

JeKo-1 [7] = experiment: Induction of apoptosis in human JeKo-1 cells assessed as early apoptotic cells at 750 nM incubated for 72 hrs by Annexin VFITC/PI staining based flow cytometry analysis (reference value: 3.10%); format: functional
[8] = Metabolic stability in human liver microsome assessed as half life preincubated with compound for 5 mins followed by NADPH addition and measured upto 60 mins by LC-MS/MS analysis; format: ADME; conditions: liver microsomes, time < 65 min
[9] = Toxicity in NOD/SCID mouse xenografted with human JeKo-1 cells assessed as effect on body weight at 25 to 50 mg/kg, ip measured for 16 days; format: organism-based; conditions: in vivo, 384 h, dose 25-50 mg/kg, time 16 day
JeKo-1 [10] = experiment: Induction of apoptosis in human JeKo-1 cells assessed as upregulation of Bax protein expression at 30 to 750 nM incubated for 72 hrs by Western blot analysis; format: functional, cell-based; conditions: dose 30-750 nM
[11] = target: 1-phosphatidylinositol 4,5-bisphosphate phosphodiesterase gamma-2 (Homo sapiens) (UniProt P16885); experiment: Inhibition of PLCgamma2 phosphorylation in human JeKo-1 cells incubated for 72 hrs by Western blot analysis; format: cell-based; conditions: dose 30-750 nM
MV4-11 [12] = experiment: Antitumor activity against human MV4-11 cells xenografted NOD/SCID mouse assessed as increase in tumor necrotic cells at 20 mg/kg, ip administered once daily for 21 days by H and E staining analysis; format: functional, organism-based; conditions: time 21.0 day
JeKo-1 [13] = experiment: Induction of apoptosis in human JeKo-1 cells assessed as necrotic cells at 750 nM incubated for 72 hrs by Annexin VFITC/PI staining based flow cytometry analysis (reference value: 0.67%); format: functional
[14] = target: Tyrosine-protein kinase Blk (Homo sapiens) (UniProt P51451); experiment: Inhibition of BLK (unknown origin) at 0.2 uM incubated for 40 mins by radiometric kinase assay relative to control
[15] = target: RAF proto-oncogene serine/threonine-protein kinase (Homo sapiens) (UniProt P04049); experiment: Inhibition of c-RAF (unknown origin) at 0.2 uM incubated for 40 mins by radiometric kinase assay relative to control
MV4-11 [16] = experiment: cells; conditions: Homo sapiens, MV4-11, 72 h
[17] = Toxicity in NOD/SCID mouse xenografted with human JeKo-1 cells assessed as drinking abnormalities at 25 to 50 mg/kg, ip measured for 16 days; format: organism-based; conditions: in vivo, 384 h, dose 25-50 mg/kg, time 16 day
[18] = target: PI3-kinase p110-alpha/p85-alpha (Homo sapiens) (UniProt P27986+P42336); experiment: Inhibition of PI3 Kinase p110a/p85a (unknown origin) at 0.2 uM incubated for 40 mins by radiometric kinase assay relative to control; format: protein-complex assay
MV4-11 [19] = experiment: Potency index, ratio of sorafenib IC50 to test compound IC50 for antiproliferative activity against human MV4-11 cells; format: functional
K562 [20] = experiment: Potency index, ratio of ibrutinib IC50 to test compound IC50 for antiproliferative activity against human K562 cells; format: functional
[21] = target: Inhibitor of nuclear factor kappa-B kinase subunit alpha (Homo sapiens) (UniProt O15111); experiment: Inhibition of IKKalpha (unknown origin) at 0.2 uM incubated for 40 mins by radiometric kinase assay relative to control
[22] = target: Tyrosine-protein kinase SYK (Homo sapiens) (UniProt P43405); experiment: Inhibition of SYK (unknown origin) at 0.2 uM incubated for 40 mins by radiometric kinase assay relative to control
MOLT-4 = experiment: Potency index, ratio of ibrutinib IC50 to test compound IC50 for antiproliferative activity against human MOLT-4 cells; format: functional
[23] = target: Death-associated protein kinase 1 (Homo sapiens) (UniProt P53355); experiment: Inhibition of DAPK1 (unknown origin) at 0.2 uM incubated for 40 mins by radiometric kinase assay relative to control
Death-associated protein kinase 1 (Homo sapiens), sequence (P53355 whole entry, looked up): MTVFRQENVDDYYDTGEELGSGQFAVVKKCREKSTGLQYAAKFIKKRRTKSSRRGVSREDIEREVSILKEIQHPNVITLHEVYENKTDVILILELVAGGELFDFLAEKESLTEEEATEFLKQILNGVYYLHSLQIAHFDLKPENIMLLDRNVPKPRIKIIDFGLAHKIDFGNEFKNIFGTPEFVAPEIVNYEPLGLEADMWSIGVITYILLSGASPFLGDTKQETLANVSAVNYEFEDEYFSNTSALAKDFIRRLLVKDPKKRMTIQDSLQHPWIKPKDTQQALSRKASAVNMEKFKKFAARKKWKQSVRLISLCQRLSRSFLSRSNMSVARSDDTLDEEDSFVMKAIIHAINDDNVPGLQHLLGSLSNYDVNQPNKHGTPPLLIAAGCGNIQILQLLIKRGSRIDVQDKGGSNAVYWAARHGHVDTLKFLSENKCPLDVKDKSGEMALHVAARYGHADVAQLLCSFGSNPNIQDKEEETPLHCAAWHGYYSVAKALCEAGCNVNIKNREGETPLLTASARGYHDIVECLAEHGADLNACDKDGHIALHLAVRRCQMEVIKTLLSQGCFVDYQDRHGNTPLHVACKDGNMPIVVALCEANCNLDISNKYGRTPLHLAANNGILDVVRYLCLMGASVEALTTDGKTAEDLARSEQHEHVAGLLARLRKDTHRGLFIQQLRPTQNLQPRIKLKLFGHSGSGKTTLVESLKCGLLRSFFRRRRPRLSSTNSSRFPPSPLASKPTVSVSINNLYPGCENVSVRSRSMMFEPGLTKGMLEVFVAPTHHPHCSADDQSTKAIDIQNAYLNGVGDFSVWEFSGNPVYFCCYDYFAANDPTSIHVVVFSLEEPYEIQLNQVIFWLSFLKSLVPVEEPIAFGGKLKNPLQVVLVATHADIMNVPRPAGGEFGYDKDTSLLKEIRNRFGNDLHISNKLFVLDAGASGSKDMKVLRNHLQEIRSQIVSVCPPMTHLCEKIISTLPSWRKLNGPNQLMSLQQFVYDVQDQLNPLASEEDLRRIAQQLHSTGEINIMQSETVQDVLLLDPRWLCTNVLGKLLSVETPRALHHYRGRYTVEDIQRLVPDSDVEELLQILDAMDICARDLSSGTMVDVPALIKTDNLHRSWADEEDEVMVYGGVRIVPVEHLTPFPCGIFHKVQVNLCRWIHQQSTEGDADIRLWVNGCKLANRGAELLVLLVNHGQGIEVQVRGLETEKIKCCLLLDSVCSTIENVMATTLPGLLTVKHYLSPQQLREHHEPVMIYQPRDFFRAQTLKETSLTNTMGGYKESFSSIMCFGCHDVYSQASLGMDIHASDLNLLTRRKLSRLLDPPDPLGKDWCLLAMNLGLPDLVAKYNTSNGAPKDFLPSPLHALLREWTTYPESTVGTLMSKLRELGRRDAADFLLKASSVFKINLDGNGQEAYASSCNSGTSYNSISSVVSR

K562 [24] = experiment: Potency index, ratio of spebrutinib IC50 to test compound IC50 for antiproliferative activity against human K562 cells; format: functional
[25] = target: Mitogen-activated protein kinase 13 (Homo sapiens) (UniProt O15264); experiment: Inhibition of SAPK4 (unknown origin) at 0.2 uM incubated for 40 mins by radiometric kinase assay relative to control
Mitogen-activated protein kinase 13 (Homo sapiens), sequence (O15264 whole entry): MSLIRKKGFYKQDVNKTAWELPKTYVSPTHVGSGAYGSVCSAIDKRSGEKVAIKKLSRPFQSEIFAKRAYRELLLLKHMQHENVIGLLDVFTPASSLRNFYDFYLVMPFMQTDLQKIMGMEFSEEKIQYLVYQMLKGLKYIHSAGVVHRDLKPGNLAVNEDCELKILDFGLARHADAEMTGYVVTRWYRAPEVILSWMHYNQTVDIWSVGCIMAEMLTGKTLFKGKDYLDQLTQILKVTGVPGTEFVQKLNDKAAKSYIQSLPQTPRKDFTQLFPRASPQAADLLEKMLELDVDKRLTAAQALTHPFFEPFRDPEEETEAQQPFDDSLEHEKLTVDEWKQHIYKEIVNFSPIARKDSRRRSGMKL

JeKo-1 [26] = experiment: Induction of apoptosis in human JeKo-1 cells assessed as early apoptotic cells at 150 nM incubated for 72 hrs by Annexin VFITC/PI staining based flow cytometry analysis (reference value: 3.10%); format: functional
MV4-11 [27] = experiment: Antitumor activity against human MV4-11 cells xenografted NOD/SCID mouse assessed as increase in tumor necrotic cells at 10 mg/kg, ip administered once daily for 21 days by H and E staining analysis; format: functional, organism-based; conditions: time 21.0 day
[28] = system: Tyrosine-protein kinase Tec; experiment: Inhibition of TEC (unknown origin) at 0.2 uM incubated for 40 mins by radiometric kinase assay relative to control; conditions: Homo sapiens
[29] = target: Calcium/calmodulin-dependent protein kinase kinase 2 (Homo sapiens) (UniProt Q96RR4); experiment: Inhibition of CaMKK2 (unknown origin) at 0.2 uM incubated for 40 mins by radiometric kinase assay relative to control
Calcium/calmodulin-dependent protein kinase kinase 2 (Homo sapiens), sequence (Q96RR4 2-588 limits assumed): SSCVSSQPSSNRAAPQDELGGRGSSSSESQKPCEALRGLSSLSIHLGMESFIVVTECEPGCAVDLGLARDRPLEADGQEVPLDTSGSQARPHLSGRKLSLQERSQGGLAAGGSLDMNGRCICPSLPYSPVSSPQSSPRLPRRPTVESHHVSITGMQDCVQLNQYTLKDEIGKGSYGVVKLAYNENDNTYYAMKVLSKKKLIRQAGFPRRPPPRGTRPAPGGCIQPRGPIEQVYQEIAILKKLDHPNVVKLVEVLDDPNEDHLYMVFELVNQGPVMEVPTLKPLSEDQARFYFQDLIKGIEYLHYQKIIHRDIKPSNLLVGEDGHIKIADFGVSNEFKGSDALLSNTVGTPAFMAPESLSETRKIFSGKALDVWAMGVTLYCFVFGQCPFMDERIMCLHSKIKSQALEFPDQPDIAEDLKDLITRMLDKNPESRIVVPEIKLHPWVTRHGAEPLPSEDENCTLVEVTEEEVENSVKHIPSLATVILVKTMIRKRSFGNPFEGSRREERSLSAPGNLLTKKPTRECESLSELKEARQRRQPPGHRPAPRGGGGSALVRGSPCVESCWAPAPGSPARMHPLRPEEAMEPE

[30] = target: Inhibitor of nuclear factor kappa-B kinase subunit beta (Homo sapiens) (UniProt O14920); experiment: Inhibition of IKKbeta (unknown origin) at 0.2 uM incubated for 40 mins by radiometric kinase assay relative to control
Inhibitor of nuclear factor kappa-B kinase subunit beta (Homo sapiens), sequence (O14920 whole entry): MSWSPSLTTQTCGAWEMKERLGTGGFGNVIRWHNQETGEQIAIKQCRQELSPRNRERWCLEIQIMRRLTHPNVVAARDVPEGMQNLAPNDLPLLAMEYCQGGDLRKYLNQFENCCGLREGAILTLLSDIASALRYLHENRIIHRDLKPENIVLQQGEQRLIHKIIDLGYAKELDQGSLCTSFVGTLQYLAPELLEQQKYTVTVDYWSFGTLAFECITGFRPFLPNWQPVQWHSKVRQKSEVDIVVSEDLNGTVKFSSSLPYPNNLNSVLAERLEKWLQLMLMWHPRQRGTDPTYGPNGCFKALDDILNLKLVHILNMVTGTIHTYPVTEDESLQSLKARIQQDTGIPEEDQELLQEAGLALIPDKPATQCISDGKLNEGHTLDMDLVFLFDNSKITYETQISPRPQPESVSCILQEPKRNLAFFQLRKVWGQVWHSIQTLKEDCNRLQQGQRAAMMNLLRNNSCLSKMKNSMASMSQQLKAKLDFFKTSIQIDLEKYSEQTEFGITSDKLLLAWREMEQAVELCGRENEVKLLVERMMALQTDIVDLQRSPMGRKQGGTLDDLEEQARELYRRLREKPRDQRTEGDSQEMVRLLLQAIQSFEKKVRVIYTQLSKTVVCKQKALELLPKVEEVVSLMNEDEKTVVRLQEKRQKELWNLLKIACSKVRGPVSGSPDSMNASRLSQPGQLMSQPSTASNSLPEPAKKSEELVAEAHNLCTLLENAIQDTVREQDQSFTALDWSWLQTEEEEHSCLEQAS

[31] = target: Mitogen-activated protein kinase 8 (Homo sapiens) (UniProt P45983); experiment: Inhibition of JNK1alpha1 (unknown origin) at 0.2 uM incubated for 40 mins by radiometric kinase assay relative to control
Mitogen-activated protein kinase 8 (Homo sapiens), sequence (P45983 whole entry): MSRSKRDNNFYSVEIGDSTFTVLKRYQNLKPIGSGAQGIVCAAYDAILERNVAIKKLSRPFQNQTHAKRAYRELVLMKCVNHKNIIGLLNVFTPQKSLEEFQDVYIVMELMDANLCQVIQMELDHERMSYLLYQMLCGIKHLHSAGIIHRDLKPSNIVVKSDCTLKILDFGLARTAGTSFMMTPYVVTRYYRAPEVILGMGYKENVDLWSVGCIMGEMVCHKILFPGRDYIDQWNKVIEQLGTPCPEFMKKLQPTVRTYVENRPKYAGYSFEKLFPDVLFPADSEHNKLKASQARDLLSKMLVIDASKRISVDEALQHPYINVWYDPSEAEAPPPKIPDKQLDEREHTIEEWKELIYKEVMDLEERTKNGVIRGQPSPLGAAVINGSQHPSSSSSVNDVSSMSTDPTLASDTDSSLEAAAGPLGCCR

`CN1CCN(c2ccc(Nc3ncc(F)c(Nc4ccccc4C(=O)NN)n3)cc2)CC1` showed an inhibition [1] of 24%, an inhibition [2] of 6% and an Activity (JeKo-1 [3]) of 0.18%. For the same compound, the survival at 336 h [4] was 0%, the “Ratio IC50” value (JeKo-1 [5]) was 8 and the inhibition [6] was 100%. For the same compound, the Activity (JeKo-1 [7]) was 37.89%, the half-life [8] was 41.5 min and the Activity [9] was “Non-Toxic”. For the same compound, the Activity (JeKo-1 [10]) was “Active”, the inhibition [11] was “Dose-Dependent Effect” and the Activity (MV4-11 [12]) was “Active”. The Activity (JeKo-1 [13]) was 0.11%, the inhibition [14] was 62% and the inhibition [15] was -10%. For the same compound, the IC50 (MV4-11 [16]) was 3 nM, the Activity [17] was “Non-Toxic” and the inhibition [18] was 13%. For the same compound, the “Ratio IC50” value (MV4-11 [19]) was 1.3, the “Ratio IC50” value (K562 [20]) was 6 and the inhibition [21] was 17%. The inhibition [22] was 4%, the “Ratio IC50” value (MOLT-4) was 6 and the inhibition [23] was -1%. For the same compound, the “Ratio IC50” value (K562 [24]) was 8, the inhibition [25] was 3% and the Activity (JeKo-1 [26]) was 25.6%. The Activity (MV4-11 [27]) was “Active”, the inhibition [28] was 47% and the inhibition [29] was 27%. For the same compound, the inhibition [30] was 15% and the inhibition [31] was 27%.
